Tests used:
[1] = Contact angle of spray compositions (Kruss DSA30 Drop shape analyser); format: physicochemical; conditions: composition with 15 ppm copper hydroxide
Experimental: (§1) The surface wetting and deposition of copper from spray compositions was determined by comparing compositions containing 15 ppm copper hydroxide with varying amounts of sodium lauryl sulfate (Agnique SLS) on its own, varying amounts of sodium dioctyl sulfosuccinate (Geropon SDS) on its own and various mixtures of the two surfactants.
Contact angles of the same compositions were also measured.
(§2) The measurements were made using a Kruss DSA30 Drop shape analyser.

[2] = Surface tension of spray compositions (Kruss DSA30 Drop shape analyser); format: physicochemical; conditions: composition with 15 ppm copper hydroxide
Experimental: as §1, §2

contact angle ([1]; across all rates) [°]	Compound	contact angle trend with concentration [1]	surface tension (actual) ([2]; 5 ppm surfactant) [mN/m]	surface tension (actual) ([2]; 20 ppm surfactant) [mN/m]	surface tension (actual) ([2]; 50 ppm surfactant) [mN/m]	surface tension (actual) ([2]; 125 ppm surfactant) [mN/m]	surface tension (actual) ([2]; 250 ppm surfactant) [mN/m]
	CCCCCCCCOC(=O)CC(C(=O)OCCCCCCCC)S(=O)(=O)O.[Na] (stereo not drawn) [Geropon SDS, sodium dioctyl sulfosuccinate]	stepwise reduction from 5 ppm onwards	70.0	55.5	49.6	47.6	43.9
> 100	CCCCCCCCCCCCOS(=O)(=O)[O-].[Na+] [Agnique SLS, sodium lauryl sulfate]		70.4	70.5	67.3	64.7	64.6

— patent US20230380424A1, “IMPROVEMENTS IN OR RELATING TO COPPER BASED PESTICIDES” (AGRONATURALIS LTD, priority 2020, published 2023)
